Reference: PubChem BioAssay AID1508591

Details: rat; liver microsomes; pH 7.4; 15.0 min; 1.0 µM
In the case of `CCN(CCN(C)C)C(=O)C1CCN(S(=O)(=O)c2c(C)noc2/C=C/c2ccccc2F)CC1`, the half-life is reported as over 30 min. In the case of `CC(=O)c1c(C)[nH]c(C(=O)Nc2cccc([S+](=O)([O-])Nc3cccnc3)c2)c1C`, the half-life is reported as 17 min. In the case of `COc1ccc(Cl)cc1C(=O)Nc1ccc(NC(=O)c2ccco2)cc1`, the half-life is reported as over 30 min. Molecule `O=C(c1cc2ccccc2[nH]1)N1CCc2c(n(Cc3cccnc3)n(CCc3ccccc3)c2=O)C1` has a half-life of 1.55 min. `c1cc(-c2cc(-c3ccncc3)c3cncn3c2)c2[nH]ccc2c1` showed a half-life of 7.16 min. Work on `COc1cc(OC)c2c(=O)[nH]c(-c3cc(C)c(OCCO)c(C)c3)nc2c1` yielded a half-life of over 30 min. `C[N+]1([O-])[C@@H]2CC[C@H]1CC(OC(=O)C(CO)c1ccccc1)C2` (stereo partly drawn) gave a half-life of over 30 min. Work on `COC(=O)c1ccc([C@H]2c3[nH]c4ccccc4c3C[C@H](C(=O)OC)N2C(=O)CCl)cc1` yielded a half-life of 4.02 min. `C1CCc2nc3c(nc2C1)CCCC3` gave a half-life of over 30 min. Molecule `NC(=O)C1CCN(c2nc(-c3ccc(C(F)(F)F)cc3)cs2)CC1` has a half-life of 5.39 min. With `CN1CCN(Cc2ccc(NC(=O)Cc3ccc(Oc4cc(NC(=O)C5CC5)ncn4)cc3)cc2C(F)(F)F)CC1` the half-life was over 30 min. Work on `Cc1ccc(NS(=O)(=O)c2ccc(C(=O)Nc3nc(-c4ccccc4)cs3)cc2)cc1` yielded a half-life of 6.5 min. `Cc1nc2ccc(Nc3nc(-c4ccncc4)nc4ccccc34)cc2s1` showed a half-life of 10 min. Molecule `COc1cc(-c2nc(Cn3nnc(C(=O)Nc4cc(C)cc(C)c4)c3C)c(C)o2)cc(OC)c1OC` has a half-life of 20.6 min. With `Cc1cn2c(N)c(Cl)cc(C(=O)NCC3CCN(CC(C)C)CC3)c2n1` the half-life was over 30 min. With `COc1cccc(CNc2ccc(S(=O)(=O)Nc3cc(C)on3)cc2)c1O` the half-life was over 30 min. In the case of `Fc1ccc(Nc2nc(-c3ccnc(C(F)(F)F)c3)nc3ccccc23)cc1F`, the half-life is reported as over 30 min. `O=C(Cc1ccc(Cl)c(Cl)c1)Nc1ccc(S(=O)(=O)Nc2ccon2)cc1` showed a half-life of over 30 min. In the case of `Cc1cc(CNC(=O)c2ccc3c(c2)n(CC2CC2)c(=O)n3C2CCCCC2)on1`, the half-life is reported as 12.4 min. Work on `Cc1ccc(-n2ncc3c(Nc4cccc(C(=O)O)c4)ncnc32)cc1` yielded a half-life of over 30 min. `CCOC(=O)C1(Cc2ccccc2C(F)(F)F)CCN(C2CCN(C(C)C)CC2)CC1` showed a half-life of over 30 min. With `CCOc1ccc(CCNC(=O)c2cc3sccc3n2Cc2ccc(-n3cncn3)cc2)cc1OCC` the half-life was 4.3 min. In the case of `Cc1cc(N2CCN(c3ccccc3)CC2)nc(-n2nc(C)cc2C)n1`, the half-life is reported as over 30 min. Molecule `CN([C@@H](Cc1ccc(OS(=O)(=O)c2cccc3cnccc23)cc1)C(=O)N1CCN(c2ccccc2)CC1)S(=O)(=O)c1cccc2cnccc12` has a half-life of 1 min. In the case of `NC(=O)C1CCN(c2nc(-c3ccc(N)cc3)cs2)CC1`, the half-life is reported as over 30 min. `CCCCN(C)C(=O)c1c(C)sc2ccn(CCC)c(=O)c12` showed a half-life of 13.3 min. Molecule `Cc1ccc(NS(=O)(=O)c2ccccc2C(=O)Nc2nc(-c3ccccc3)cs2)cc1` has a half-life of 15 min. In the case of `CC(Cc1ccc(O)cc1)NCC(O)c1cc(O)cc(O)c1` (stereo not drawn), the half-life is reported as over 30 min. `CN1Cc2c(ccc3c2OCO3)[C@@H]2[C@H]1c1cc3c(cc1C[C@@H]2O)OCO3` gave a half-life of 2.12 min. `CCOc1ccccc1N1CC(c2nc3ccccc3n2CCOc2ccc(C(C)(C)C)cc2)CC1=O` (stereo not drawn) showed a half-life of 2.34 min. In the case of `COc1ccc(CNC(=O)CCCn2nc(C)c3c(C)n(-c4ccc(C)cc4)nc3c2=O)cc1OC`, the half-life is reported as 4.18 min. Work on `O=C(O)CCNc1cc(N2CCc3ccccc3CC2)nc(-c2cccnc2)n1` yielded a half-life of over 30 min. With `Cc1cc(-c2nnc3n2CCCCC3)c(C)n1-c1cccc(C#N)c1` the half-life was 8.1 min. For `Cc1ccc(S(=O)(=O)Nc2ccccc2C(=O)Nc2cccc(-c3ccccc3)c2)cc1`, the half-life was 3.5 min. In the case of `NC(=O)C1CCN(c2nc(-c3ccc(N4CCCCC4)nc3)cs2)CC1`, the half-life is reported as 17.2 min. With `Nc1nc(Nc2ccc(S(N)(=O)=O)cc2)n(C(=S)Nc2c(F)cccc2F)n1` the half-life was over 30 min. With `Cc1cc(NS(=O)(=O)c2ccc(NC(=O)c3oc4ccccc4c3C)cc2)nc(C)n1` the half-life was over 30 min. For `COc1ccc(-n2nc3c(N4CCCC(C(=O)NCCc5ccc(C)cc5)C4)nnc(C)c3c2C)cc1` (stereo not drawn), the half-life was 2.6 min. Molecule `Cn1c(=O)cc(C(=O)NC2CCCc3c2[nH]c2c(Cl)cccc32)c2ccccc21` (stereo not drawn) has a half-life of 10.1 min. In the case of `Nc1ncnc2c1ncn2[C@H]1O[C@@H](CO)[C@@H](O)[C@H]1N`, the half-life is reported as over 30 min. For `Fc1ccc(Nc2ccnc(-c3ccncc3)n2)cc1F`, the half-life was 13 min. Work on `CCCN1C(CC(C)C)=NS(=O)(=O)c2cc(NC(=O)c3cccs3)ccc21` yielded a half-life of 4.56 min. With `Fc1ccc(Nc2cc(-c3ccccc3)nc(-c3ccncc3)n2)cc1F` the half-life was over 30 min. For `O=C(Nc1nc(-c2ccccc2)cs1)c1ccccc1-n1cnnn1`, the half-life was over 30 min. Molecule `O=C(Nc1cccnc1)c1cccs1` has a half-life of over 30 min. `COC(=O)C1=C(C)NC(C)=C(C(=O)OCCCN2CCC(c3ccccc3)(c3ccccc3)CC2)C1c1cccc([N+](=O)[O-])c1` (stereo not drawn) showed a half-life of 5.13 min. For `COc1cc(CNCCO)cc(Cl)c1OCc1ccc(Cl)cc1Cl`, the half-life was 25.5 min. For `CC(Nc1ccc([S+](=O)([O-])Nc2nccs2)cc1)c1ccccc1` (stereo not drawn), the half-life was 13 min. Work on `Cc1ccc(S(=O)(=O)Nc2cnccc2C(=O)Nc2ccc(C#N)cc2)cc1` yielded a half-life of 7.5 min. `CC1=C(C(=O)Nc2nccs2)C(c2ccccc2Br)N=C(Nc2nc3ccccc3o2)N1` (stereo not drawn) gave a half-life of 27 min. `O=C(c1nc(-c2ccc(Cl)cc2Cl)c2cnccn12)N1CCOCC1` showed a half-life of 23.6 min. In the case of `COc1ccc2[nH]c3c(C)c4ccncc4c(C)c3c2c1`, the half-life is reported as over 30 min. In the case of `CC(C=CC(=O)NO)=C[C@@H](C)C(=O)c1ccc(N(C)C)cc1`, the half-life is reported as 4.06 min. Work on `CCN(CC)S(=O)(=O)c1ccc(N2CCCC2)c(NS(=O)(=O)c2ccccc2)c1` yielded a half-life of 1.1 min. With `Cc1ccc(S(=O)(=O)N(C)c2ccccc2C(=O)Nc2nc(-c3ccccc3)cs2)cc1` the half-life was 1.7 min. `Cc1ccnc(NC(=S)N2CCN(c3cc(F)cc(Cl)c3)CC2)c1` showed a half-life of 21 min. `O=C(c1ccccc1)N1CCC(C(=O)N2CCC(N3Cc4ccccc4C3=O)CC2)CC1` showed a half-life of over 30 min. `C[C@@H]1C(=O)O[C@H]2[C@H]1CC[C@@]1(C)Cc3sc(NS(=O)(=O)Cc4ccccc4)nc3[C@@H](C)[C@H]21` gave a half-life of 1.69 min. In the case of `Cc1cnc(-c2ccccc2C2COC2)nc1NCC1CCN(c2cccnc2)CC1`, the half-life is reported as over 30 min. `CN1CCC(N(Cc2cccs2)c2ccccc2)CC1` gave a half-life of 1.37 min. `CCOc1ccc(NC(=O)c2cccc(-n3cccc3)c2)cc1S(=O)(=O)N1CCOCC1` gave a half-life of 3.16 min. `CC(C)(C)CC(C)(C)c1ccc(O)cc1` showed a half-life of 5.8 min. With `O=C1CCCC2=C1C(c1[nH]ncc1Cl)N=C(Nc1nc3c(Br)cccc3o1)N2` (stereo not drawn) the half-life was 3.2 min. With `Cc1ccc(N2CCC(CNc3nc(-c4ccccc4C(C)C)ncc3F)CC2)cn1` the half-life was 2.4 min. For `Fc1ccc(Cc2nc3nccc(-c4cccs4)n3n2)cc1`, the half-life was 2.95 min. Molecule `CCc1ccc(NC(=O)[C@H](Cc2c[nH]c3ccccc23)NC(=O)[C@@H]2Cc3ccccc3CN2)cc1` has a half-life of 2.32 min. Work on `COCCNc1ncc(-c2cccc(O)c2)c2c1OCC2` yielded a half-life of 8.62 min. `CC(C)n1cc(-c2ccc(Oc3ccccc3)cc2)c2c(N)ncnc21` showed a half-life of 18 min. For `CN1CCN(C(c2ccccc2)c2ccccc2)CC1`, the half-life was 2.56 min. Work on `O=C1CCC(C(=O)N2CCSCC2)CN1Cc1ccc(Cl)cc1` (stereo not drawn) yielded a half-life of 10 min. `COc1ccc(-n2c(C)c(C(C)=O)c3ccccc32)cc1` gave a half-life of 2.4 min. Molecule `COc1ccc(OC)c(N2C(=O)C(Cl)=C(N3CCCCC3)C2=O)c1` has a half-life of 1.5 min. In the case of `COc1cccc(CNc2ccc(S(=O)(=O)Nc3cccc(-c4ccccc4)c3)cc2)c1O`, the half-life is reported as 17 min. `COc1ccc(OC)c(Nc2c3c(nc4ccccc24)CCC3)c1` showed a half-life of 1.5 min. Molecule `O=C1CN(C(=O)CCC(=O)N2CCc3c(nc4cc(-c5ccccc5)[nH]n4c3=O)C2)c2ccccc2N1` has a half-life of over 30 min. For `CN1CCN(c2cc(-c3nc(Nc4ccc(F)c(F)c4)c4ccccc4n3)ccn2)CC1`, the half-life was 5.3 min. In the case of `O=[S+]([O-])(Nc1nccs1)c1ccc(NCc2cccc(Cl)c2)cc1`, the half-life is reported as 15 min. Molecule `CCCn1cnc2cc(NCc3ccc(OC)cc3OC)ccc21` has a half-life of 7.1 min. In the case of `Fc1cc(Nc2nc(-c3ccncc3)nc3ccccc23)ccc1-c1cccc(OC(F)F)c1`, the half-life is reported as over 30 min. For `Cc1ccc(-c2csc(CCn3nc(C)c4c(C(F)(F)F)cc(=O)[nH]c43)n2)cc1`, the half-life was 4.7 min. Work on `O=C(Nc1ncc(Cc2ccc(C(F)(F)F)cc2)s1)c1ccc(-c2ccc([N+](=O)[O-])cc2)o1` yielded a half-life of over 30 min. `N#Cc1nc(-c2cccc3ccccc23)oc1NC1CNC1` gave a half-life of over 30 min. `Cc1ccc(S(=O)(=O)N[C@@H](Cc2ccccc2)C(=O)CCl)cc1` showed a half-life of 2.36 min. `COc1ccc2[nH]c(S(=O)Cc3ncc(C)c(OC)c3C)nc2n1` (stereo not drawn) showed a half-life of 19.2 min. `CCN(CC)[S+](=O)([O-])c1cc(NC(=O)c2[nH]c(C)c(C(C)=O)c2C)ccc1OC` showed a half-life of 4.7 min. For `O=C(NCc1ccco1)c1nc2nc(-c3cccs3)cc(C(F)(F)F)n2n1`, the half-life was over 30 min. With `O=C(c1ccc2c(c1)ncn2-c1ccc(C(F)(F)F)cc1)N1CCCCC1` the half-life was 7.6 min. Work on `Cc1cccc2c(C(=O)O)cc(-c3cccs3)nc12` yielded a half-life of 8.96 min. With `CCCCCN(CCC12CC3CC(CC(C3)C1)C2)C(=O)NCCCc1ccncc1` the half-life was 3.7 min. `Cc1cccc(-c2csc(N3CCC(C(N)=O)CC3)n2)c1` gave a half-life of 1.66 min. `O=C(CCCN1CCC2(CC1)C(=O)N(Cc1cccc(F)c1)CN2c1ccccc1)c1ccc(F)cc1` gave a half-life of 1.65 min. Molecule `O=C1Nc2cc(Cl)ccc2/C1=C\c1cc(Cl)c(O)c(Cl)c1` has a half-life of over 30 min. Work on `O=S(=O)(c1ccccc1)c1nc(-c2ccc(F)cc2)oc1N1CCCCCC1` yielded a half-life of 1.95 min. `O=C1Nc2ccc(I)cc2C1=Cc1cc(Br)c(O)c(Br)c1` showed a half-life of over 30 min. For `Clc1ccccc1Nc1nc(-c2ccncc2)nc2ccccc12`, the half-life was 11 min. For `CCS(=O)(=O)c1nc(-c2ccc(Cl)cc2)cc(C(F)(F)F)n1`, the half-life was 5.7 min. `CNC(=O)c1cc(Oc2ccc(NC(=O)Nc3ccc(Cl)c(C(F)(F)F)c3)c(F)c2)ccn1` gave a half-life of over 30 min. In the case of `CCCOC(c1cc2nccc(C(=O)O)c2[nH]1)c1ccccc1Cl` (stereo not drawn), the half-life is reported as 23.1 min. For `COC(=O)c1ccnc(-c2cc(C(=O)NCCc3ccccc3)ccn2)c1`, the half-life was 1.98 min. Work on `Cc1ccc2oc(NC3=NC(c4[nH]ncc4Cl)C4=C(CCCC4=O)N3)nc2c1` (stereo not drawn) yielded a half-life of 1.7 min. Molecule `CCN(CC)C(=O)c1coc(COc2ccc3c(c2)C(c2cccc(F)c2)N(C(=O)C(C)C)CC3)n1` (stereo not drawn) has a half-life of 1.28 min. For `COc1ccc(Nc2nnc(-c3ccc(C)c(S(=O)(=O)NCc4nc5ccccc5[nH]4)c3)c3ccccc23)cc1`, the half-life was 5.72 min. With `COc1ccc(O)c(CNc2ccc(S(=O)(=O)Nc3nccs3)cc2)c1` the half-life was over 30 min.
